Measurements published in publication PMC13083723 (Patterns, 2026).
Counter-ions that a name gives are not always drawn. Like-named read-outs stand apart in the source and are kept apart here.

Experiments:
[1] = test system: Vero-E6 cells; test: cells; assay type: cell-based
[2] = test system: SARS-CoV-2; conditions: cited from earlier work; for Vero-E6 CPE inhibition %: 10 µM; for EC50: read-out: Vero-E6 EC50
[3] = test system: SARS-CoV-2; conditions: cited from earlier work; for CaCo2 CPE inhibition %: Caco-2, 20 µM; for CaCo2 CPE assay (active): Caco-2
[4] = test system: A549-ACE2 cells; test: cells; assay type: cell-based; conditions: A549-ACE2, 24 h, read-out: PLD_Effect(%) A549-ACE2
[5] = cited from earlier work
[6] = Chlorocebus sabaeus, Vero C1008, 24 h; read-out: PLD Effect in % 5 µM
[7] = Chlorocebus sabaeus, Vero C1008, 24 h; read-out: PLD Effect in % 10 µM
[8] = Chlorocebus sabaeus, Vero C1008, 24 h; read-out: PLD Effect in % 20 µM
[9] = Chlorocebus sabaeus, Vero C1008, 24 h, read-out: PLD_Effect(%) VERO-E6
[10] = Chlorocebus sabaeus, Vero C1008, read-out: PLD EC50 µM
[11] = Chlorocebus sabaeus, Vero C1008; read-out: PLD EC50

| Compound | PLD Effect in % 5 µM ([1]; 5 µM) | PLD Effect in % 10 µM ([1]; 10 µM) | PLD Effect in % 20 µM ([1]; 20 µM) | Vero-E6 CPE inhibition % [2] | CaCo2 CPE inhibition % [3] | activation at 5 µM [1, 6] [%] | activation at 10 µM [1, 7] [%] | activation at 20 µM [1, 8] [%] | also measured |
| --- | --- | --- | --- | --- | --- | --- | --- | --- | --- |
| COc1ccc(NC(=O)c2ccc(-c3ccc(-c4noc(C)n4)cc3C)cc2)cc1OCCN(C)C [SB-216641, reference compound] | 93.22% | 104.74% | -42.60% | -0.22% | 57.65% | – | – | – | EC50 ([1]; read-out: PLD EC50): 1.19 µM |
| amodiaquine dihydrochloride [reference compound] | 88.75% | 101.86% | 186.68% | 20.16% | 78.80% | – | – | – | EC50 [2]: 21500 nM |
| O=C1Nc2ccc(Cl)c3c2C1(CCCCN1CC=C(c2ccc(Cl)cc2)CC1)CCC3 (stereo not drawn) [DR-4485, reference compound] | 94.34% | 201.85% | -16.80% | -0.26% | 82.83% | – | – | – | – |
| O=C(NC1CCN(CCCCC2(C(=O)NCC(F)(F)F)c3ccccc3-c3ccccc32)CC1)c1ccccc1-c1ccc(C(F)(F)F)cc1 [Lomitapide, reference compound] | – | – | – | -0.39% | 77.37% | 82.8 | 169 | -28.6 | – |
| Cc1cccc(C)c1NC(=O)CN1CCN(CCCC(c2ccc(F)cc2)c2ccc(F)cc2)CC1 [lidoflazine, reference compound] | – | – | – | 0.5% | – | 65.3 | 80.2 | 129 | activation at 10 µM [1, 9]: 52.6%; EC50 [1, 10]: 5.51 µM; activation at 10 µM [4]: 90.9% |
| CCOc1cc2ncc(C#N)c(Nc3ccc(F)c(Cl)c3)c2cc1NC(=O)/C=C/CN(C)C [Pelitinib (EKB-569), Pelitinib, reference compound] | – | – | – | -0.31 | 83.39% | 76.1 | 85.5 | 101 | – |
| CCCCN1[C@@H]2CC[C@H]1C[C@@H](OC(c1ccc(F)cc1)c1ccc(F)cc1)C2 [JHW-007, reference compound] | 115.34% | 112.39% | 86.69% | -0.32% | 93.14% | – | – | – | EC50 ([1]; read-out: PLD EC50): 0.71 µM |
| CC(C)[C@H]1c2ccc(F)cc2CC[C@@]1(CCN(C)CCCc1nc2ccccc2[nH]1)OC(=O)C1CC1 [NNC-55-0396, reference compound] | 87.06% | 154.81% | -43.08% | 0% | 58.09% | – | – | – | EC50 ([1]; read-out: PLD EC50): 6.28 µM; EC50 [2]: 8210 nM |
| CCCCN(CCCC)CCC(O)c1cc2c(Cl)cc(Cl)cc2c2cc(C(F)(F)F)ccc12 (stereo not drawn) [halofantrine HCl, reference compound] | – | – | – | 0.17% | 91.38% | 79.8 | 87 | 114 | EC50 [1, 10]: 1.66 µM |
| CN1C[C@H](CNC(=O)OCc2ccccc2)C[C@@H]2c3cccc4c3c(cn4C)C[C@H]21 [metergoline, reference compound] | – | – | – | 0.05% | 54.65% | 61 | 73 | 103 | – |
| CCOc1cc(C(C)(C)C)ccc1C1=N[C@@](C)(c2ccc(Cl)cc2)[C@@](C)(c2ccc(Cl)cc2)N1C(=O)N1CCN(CCCS(C)(=O)=O)CC1 [RG7112 (RO50455337), reference compound] | – | – | – | 6.32 | 88.52% | 109 | 141 | 88.5 | EC50 [1, 11]: 2.56 µM |
| CN(C)C/C=C/C(=O)Nc1cc2c(Nc3ccc(F)c(Cl)c3)ncnc2cc1O[C@H]1CCOC1 [Afatinib, reference compound] | – | – | – | -0.39% | 60.16% | 129 | 249 | 146 | – |
| CCN1CCN(Cc2ccc(C(=O)Nc3ccc(C)c(Oc4ccc5c(c4)CC(=O)N5)c3)cc2C(F)(F)F)CC1 [DDR1-IN-1, reference compound] | – | – | – | -0.37% | 77.58% | 55.7 | 75.8 | 21.8 | – |
| CSc1ccccc1Nc1nc(N2CCNCC2)nc2c(NCC3CC3)ncnc12 [KHK-IN-1, reference compound] | toxic | toxic | toxic | toxic | toxic | – | – | – | PLD EC50 µM [1]: toxic; Vero-E6 EC50 µM [2]: toxic; CaCo2 EC50 µM [3]: toxic |
| O=C(Nc1ccc(CN2CCOCC2)cc1)c1ccc(-c2cccc(Cl)c2)o1 [CID-2011756, reference compound] | 27.66% | 31.32% | 55.98% | 0.15 | 96.96% | – | – | – | EC50 ([1]; read-out: PLD EC50): > 20 µM |
| Cc1ccc(NC(=O)c2ccc(CN3CCN(C)CC3)cc2)cc1Nc1nc(-c2cccnc2)cs1 [masitinib (AB1010), masitinib, reference compound] | – | – | – | – | 107.90% | 43.1 | 45.2 | 53.3 | PLD induction assay (active) [1]: active; EC50 [1, 11]: 2.57 µM; CaCo2 CPE assay (active) [3]: active |
| Cc1ccc(C(=O)N(CCCN)[C@@H](c2oc3cc(Cl)ccc3c(=O)c2Cc2ccccc2)C(C)C)cc1 [SB-743921, reference compound] | – | – | – | -0.36% | 78.89% | 172 | 224 | -43.6 | EC50 [1, 10]: 2.49 µM |
| COc1ccccc1C1(O)CCN(CCCn2c3ccccc3c3ccccc32)CC1 [NNC-05-2090, reference compound] | 128.41% | 178.14% | 118.98% | -0.32% | 71.83% | – | – | – | EC50 ([1]; read-out: PLD EC50): 4.91 µM |
| O=C(c1ccc(F)c(F)c1Nc1ccc(I)cc1F)N1CC(O)([C@@H]2CCCCN2)C1 [Cobimetinib, reference compound] | – | – | – | -0.31% | 61.58% | 112 | 135 | 133 | EC50 [1, 10]: 1.34 µM |
| CN(C)CC/C=C1/c2ccccc2Sc2ccc(Cl)cc21 [chlorprothixene hydrochloride, reference compound] | – | – | – | 0.27% | 55.65% | 124 | 113 | 192 | EC50 [1, 10]: 2.36 µM |
| Cc1ccc(C(=O)N(CCCN)[C@@H](c2nc3cc(Cl)ccc3c(=O)n2Cc2ccccc2)C(C)C)cc1 [ispinesib (SB-715992), ispinesib, reference compound] | – | – | – | -0.29 | 91.86% | 207 | 205 | -43.2 | EC50 [1, 11]: 1.81 µM |
| O=C(CCCN1CCC2(CC1)C(=O)N(Cc1cccc(F)c1)CN2c1ccccc1)c1ccc(F)cc1 [3'-fluorobenzylspiperone, reference compound] | – | – | – | – | 102.38 | – | – | – | PLD induction assay (active) [1]: active; activation at 5 µM ([1]; Chlorocebus sabaeus, Vero C1008, 24 h, read-out: PLD Effect in % 5 µM): 61.8%; activation at 10 µM ([1]; Chlorocebus sabaeus, Vero C1008, 24 h, read-out: PLD Effect in % 10 µM): 41.3%; activation at 20 µM ([1]; Chlorocebus sabaeus, Vero C1008, 24 h, read-out: PLD Effect in % 20 µM): 8.92%; EC50 [1, 10]: 10.3 µM; CaCo2 CPE assay (active) [3]: active |
| CCN(CC)CC1CCN(c2ncc3ncnc(Nc4ccc(F)c(Cl)c4)c3n2)CC1 [BIBU-1361, reference compound] | 160.51% | 180.15% | -42.53% | -0.24% | 78.51% | – | – | – | EC50 ([1]; read-out: PLD EC50): 0.63 µM |
| COc1cc(C(=O)NC2CCN(C)CC2)c(F)cc1Nc1ncc2c(n1)N(C1CCCC1)CC(F)(F)C(=O)N2C [TAK-960, reference compound] | – | – | – | 2.67% | 91.64% | – | – | – | – |
| OCCNC1CCCc2c1[nH]c1ccc(-c3ccccc3)cc21 (stereo not drawn) [casin, reference compound] | 116.35% | 193.97% | 134.63% | – | 71.19% | – | – | – | EC50 ([1]; read-out: PLD EC50): 3.31 µM |
| C[C@@H](NCCCc1cccc(C(F)(F)F)c1)c1cccc2ccccc12 [AMG-073 HCl, cinacalcet hydrochloride, reference compound] | – | – | – | -0.15 | – | 70.8 | 79.5 | 253 | activation at 10 µM [1, 9]: 61.8%; EC50 [1, 11]: 18.6 µM; activation at 10 µM [4]: 104%; pchembl_value (AC50) [5]: 6.14; AC50 ([5]; read-out: AC50 (value)): 730 nM |
| CCN(CC)CCO[C@H]1CC[C@@]2(C)C(=CC[C@@H]3[C@@H]2CC[C@]2(C)C(=O)CC[C@@H]32)C1 [U-18666A, reference compound] | 84.91% | 98.22% | 112.55% | – | 77.44% | – | – | – | EC50 ([1]; read-out: PLD EC50): 1.77 µM |
